The NIST ThermoML archive (doi:10.1021/je020107x)
Numbers after ± are expanded uncertainties.

Assay: refractive index (Na D-line) (dimensionless)
Conditions: 298.15 K; 101.33 kPa; Liquid; Standard Abbe refractometry

Going from CCCCCC [hexane] to CCCCCCCCCCCC [dodecane], the refractive index rises from 1.3728 ± 0.0005 to 1.4275 ± 0.0005.

Compared with CCCCCCCCCCCCCCCC [hexadecane], Clc1ccccc1 [chlorobenzene] is higher in refractive index: 1.4325 ± 0.0005 for the first, 1.5218 ± 0.0005 for the second.

First: Clc1ccccc1Cl [1,2-dichlorobenzene]
Second: Clc1ccc(Cl)c(Cl)c1 [1,2,4-trichlorobenzene]
The refractive index of the first is higher: 1.5491 ± 0.0005 for the first, 1.522 ± 0.0005 for the second.

Compound Clc1cccc(Cl)c1 [1,3-dichlorobenzene] has a refractive index of 1.5432 ± 0.0005.
